From patent US10307451B2, “Phytoestrogen product of red clover and pharmaceutical uses thereof” (Sinoveda Canada Inc., priority 2010, dated 2019)
Values after ≈ are worked out from the molar mass of the structure shown. Where two headings read alike, the source gives them in different places.

Tests used:
Caco-2 = conditions: human
[1] = Solubility interactions of isoflavones in fasted simulated intestinal fluid (FaSSIF); type: physicochemical; conditions: for Biochanin A saturation concentration: fasted media, 37° C.
Experimental: Isoflavones: daidzein, genistein, formononetin and Biochanin A were obtained from Indofine. Simulated intestinal fluid buffer powder mimicking a fasted state (FaSSIF) was obtained from Biorelevant SIF media, Biorelevant.com, Switzerland.
To prepare accurate concentrations of isoflavones in microtubes, stock solutions of individual isoflavones were prepared at 1 mg/mL in methanol. The amount of isoflavone designated to be held constant was provided at a concentration that well exceeded (about 20×) the saturation concentration for that isoflavone. The appropriate amount of stock was transferred to each microtube and the material was dried down in a vacuum centrifuge.
The competing isoflavone was prepared at 0, 1, 5, 10, 50, 100, 200 μg/mL (FIGS. 11 and 12) and, in the case of formononetin, 400 μg/mL (FIG. 9).
In the case of formononetin competition with Biochanin A, the amount of formononetin was held constant at 50 μg in 1 ml buffer (saturation concentration for formononetin in FaSSIF is about 2 μg/mL). The competing Biochanin A was prepared at 0, 1, 5, 10, 50, 100 and 200 μg/mL (FIG. 10).
Each tube was then reconstituted with 1 mL of FaSSIF buffer, sonicated and allowed to equilibrate with occasional agitation for 24 hours at 37° C. This produced a solution that contained saturated isoflavone concentrations mimicking mammalian intestinal conditions.
At the end of 24 hours each tube containing isoflavones and FaSSIF buffer was briefly centrifuged at 5000 rpm in a microcentrifuge held at 37° C. (2 minutes). A portion of the supernatant (400 μL) was then immediately placed in a centrifugal filter unit (UltraFree-MC-GV […]) and the sample filtered by centrifugation (8000 rpm, 5 minutes, 37° C.). Upon filtration 200 μL filtrate was immediately placed in a microtube and 200 μL methanol added to ensure that the isoflavones remained in solution. The sample was mixed and 200 μL of the mixture was transferred to injection vials provided with 200 μL polypropylene injection inserts.
The samples were analyzed by HPLC with diode array detection at 260 nm using 20 μL injections.

Raw264.7 cells = experiment: Osteoclast differentiation in Raw264.7 cells (ACP/cell number); type: cell-based; conditions: 10 μM total isoflavones, MCSF and RANKL stimulated
Experimental: Effects of isoflavones on the differentiation of osteoblast in MC3T3 cells followed Ge et al., 2006 and osteoclast differentiation in Raw264.7 cells followed Garcia Palacios et al., 2005. Cell numbers were measured with CellTag from Li-Cor Biosciences. Both activities of alkaline and acid phosphatase were measured with a plate reader at 405 nm. Isoflavones were first dissolved in DMSO and stock solutions were prepared at 10 mM and the final concentration of total isoflavones in test solution was 10 μM. Osteoblast and osteoclast differentiations were quantified by measuring activities of alkaline phosphatase (ALP) and acidic phosphatase (ACP). ALP is highly expressed by the mature osteoblasts and ACP is expressed by osteoclasts. Values of integrated intensity of fluorescence from […] staining serve as a correction factor for the difference in cell numbers. Therefore, ALP/cell number and ACP/cell number ratios are used to quantify osteoblast and osteoclast activities. Raw246.7 cells were treated with MCSF and RANKL to stimulate the differentiation of osteoclasts. Isoflavones were added at the final concentration of 10 μM to examine their ability to inhibit differentiation.

MC3T3 cells = experiment: Osteoblast differentiation of MC3T3 cells (ALP/cell number); type: cell-based; conditions: 10 μM total isoflavones, 1 week
Experimental: Effects of isoflavones on the differentiation of osteoblast in MC3T3 cells followed Ge et al., 2006 and osteoclast differentiation in Raw264.7 cells followed Garcia Palacios et al., 2005. Cell numbers were measured with CellTag from Li-Cor Biosciences. Both activities of alkaline and acid phosphatase were measured with a plate reader at 405 nm. Isoflavones were first dissolved in DMSO and stock solutions were prepared at 10 mM and the final concentration of total isoflavones in test solution was 10 μM. Osteoblast and osteoclast differentiations were quantified by measuring activities of alkaline phosphatase (ALP) and acidic phosphatase (ACP). ALP is highly expressed by the mature osteoblasts and ACP is expressed by osteoclasts. Values of integrated intensity of fluorescence from […] staining serve as a correction factor for the difference in cell numbers. Therefore, ALP/cell number and ACP/cell number ratios are used to quantify osteoblast and osteoclast activities. Confluence MC3T3 cells were treated with 10 μM of isoflavones for 1 week and then the activity of alkaline phosphatase (ALP) was measured as an indicator of differentiation. […] To examine if there were any synergistic effects, two isoflavones were mixed in a 1:9 ratio and tested in the final concentration of 10 μM. […]

[2] = test system: human intestinal microsomes; experiment: Metabolism of isoflavone mixtures by human intestinal microsomes; type: in vitro ADME
Experimental: (§1) Human liver microsomes, intestinal microsomes, and hepatocytes of human female origin were purchased from XenoTech. All chemicals were purchased from Sigma-Aldrich. […] The final DMSO in buffer or media was kept at 0.1%. Protocols supplied by XenoTech Inc., the supplier, were used for glucuronidation with microsomal incubation, and hepatocyte incubation. Samples were analyzed using LC/MS.

[3] = test system: human intestinal microflora; experiment: Biotransformation by human intestinal bacteria (fecal microflora incubation); type: in vitro ADME; conditions: for isoflavone left in the incubation media: human, 120 h, 100 µM
Experimental: Fresh human fecal samples were collected from 4 volunteers. Five grams of each were pooled together and mixed well with 30 mL BHI culture medium. The fecal suspension was centrifuged at 200 g for 5 min and supernatant was decanted and centrifuged at 5,000 g for another 30 min. The resultant precipitate was re-suspended with 10 mL BHI medium to produce intestinal micro flora solution.
As the biotransformation of drugs by human intestinal bacteria was determined in a 5 mL incubation system containing 250 μL intestinal microflora solution, 50 μL stock solution in DMSO in BHI medium. […] Zero-minute incubations served as controls. Reactions were stopped by extracting samples with 15 ml of ethanol twice. The two ethanol extractions were combined, dried and re-suspended in 80% methanol for HPLC/MS analysis.

plasma protein = experiment: Plasma protein binding of absorbable aglycones; type: in vitro ADME
Description: (§2) The protocol used by (Moon, Sagawa et al. 2006) was used for measuring plasma protein binding of the absorbable aglycones. Parameters have been used for PBPK simulation. Conjugates of Biochanin A, formononetin, Genistein, Daidzein and Equol are predominant components in plasma. The respective aglycones constitute less than 5% of the total concentration.

human hepatocytes = experiment: Metabolism of isoflavone mixtures by human hepatocytes; type: in vitro ADME
Experimental: as §1

[4] = Plasma protein binding of absorbable aglycones; type: in vitro ADME
Description: as §2

in vitro = conditions: human, Caco-2
[5] = CaCo-2 permeability of isoflavones in a Red clover extract; conditions: human

metabolism by human intestinal microsomes ([2]; female, human)	rate of metabolism by human hepatocytes (human hepatocytes; female, human)	Papp [5]	Compound	osteoclast differentiation (Raw264.7 cells)	bio-transformation products formed by intestinal microflora [3]	fraction unbound [4]	further results
–	–	–	COc1ccc(-c2coc3cc(O[C@@H]4O[C@H](CO)[C@@H](O)[C@H](O)[C@H]4O)cc(O)c3c2=O)cc1 [Biochanin A glucoside]	–	–	–	Mean Peff (Caco-2): 0.0164 ×10⁻⁶ cm/s
–	–	–	COc1ccc(-c2coc3cc(O)cc(O)c3c2=O)cc1 [Biochanin A]	highest inhibition	dihydrobiochanin A, genistein, and dihydrogenistein	–	Biochanin A saturation concentration ([1]; in the presence of 200 μg/mL daidzein): about 8.7 μg/mL; Biochanin A saturation concentration ([1]; in the presence of 200 μg/mL genistein): about 24.2 μg/mL; Biochanin A saturation concentration ([1]; in the presence of 400 μg/mL formononetin): about 4.5 μg/mL; ALP activity (osteoblast differentiation) (MC3T3 cells): highest ALP activity; metabolism by human intestinal microsomes [2]: 5.41E-4 ml/min/mg protein; Mean Peff (Caco-2): 10.8 ×10⁻⁶ cm/s; Plasma protein binding (plasma protein): over 97%; rate of metabolism by human hepatocytes (human hepatocytes): 8.88E-6 ml/min/million cells
1.07E-4 ml/min/mg protein	1.21E-5 ml/min/million cells	–	Oc1ccc([C@H]2COc3cc(O)ccc3C2)cc1 [Equol]	–	most resistant to bio-transformation	< 0.03	isoflavone left in the incubation media [3]: over 60%
7.31E-5 ml/min/mg protein	3.45E-6 ml/min/million cells	22 ×10⁻⁶ cm/s	COc1ccc(-c2coc3cc(O)ccc3c2=O)cc1 [Formononetin]	–	dihydroformononetin, dihydrodaidzein, daidzein, and equol	< 0.03	solubility thermodynamic at 24 h ([1]; 37 °C, fassif, thermodynamic from solid): ~2 µg/mL (≈ 7.46 µM); isoflavone left in the incubation media [3]: over 20%
–	–	0.346 ×10⁻⁶ cm/s	O=c1c(-c2ccc(O)cc2)coc2cc(O[C@@H]3O[C@H](CO)[C@@H](O)[C@H](O)[C@H]3O)cc(O)c12 [Genistin]	–	–	–	–
–	–	0.122 ×10⁻⁶ cm/s	COc1ccc(-c2coc3cc(O[C@@H]4O[C@H](CO)[C@@H](O)[C@H](O)[C@H]4O)ccc3c2=O)cc1 [Ononin]	–	–	–	–

Compound	metabolism by human intestinal microsomes ([2]; female, human)	rate of metabolism by human hepatocytes (human hepatocytes; female, human)	Papp [5]	osteoclast differentiation (Raw264.7 cells)	bio-transformation products formed by intestinal microflora [3]	fraction unbound [4]	further results
O=c1c(-c2ccc(O)cc2)coc2cc(O)ccc12 [Daidzein]	6.32E-5 ml/min/mg protein	4.07E-6 ml/min/million cells	–	stimulating osteoclast differentiation	–	~0.2	Papp (in vitro): 26.6 ×10⁻⁶ cm/s
O=c1c(-c2ccc(O)cc2)coc2cc(O[C@@H]3O[C@H](CO)[C@@H](O)[C@H](O)[C@H]3O)ccc12 [Daidzin]	–	–	0.536 ×10⁻⁶ cm/s	–	–	–	–
O=c1c(-c2ccc(O)cc2)coc2cc(O)cc(O)c12 [Genistein]	–	–	27.5 ×10⁻⁶ cm/s	stimulating osteoclast differentiation	–	< 0.03	metabolism by human intestinal microsomes ([2]; isoflavone mixtures, glucuronidation, female origin): 4.28E-4 ml/min/mg protein; bio-transformation products formed by intestinal microflora ([3]; 100 μM, anaerobic, 37° C., up to 120 h): dihydrogenistein; rate of metabolism by human hepatocytes (human hepatocytes; isoflavone mixtures, female origin): 5.14E-6 ml/min/million cells
